According to ChEMBL document CHEMBL3046135, “Iodine (III)-mediated synthesis of some 2-aryl/hetarylbenzoxazoles as antibacterial/antifungal agents” (2010):
Active and inactive are the calls of the source. The calls are words filed in the database; no cut-off is given here.

Tests used:
Format in all cases: functional
Aspergillus niger [1] = test: Antifungal activity against Aspergillus niger at 100 ug/ml after 96 hr
Bacillus subtilis [2] = test: Antibacterial activity against Bacillus subtilis MTCC 121 at 10 ug/ml after 24 hr by agar well diffusion method
Bacillus subtilis [3] = test: Antibacterial activity against Bacillus subtilis MTCC 121 at 100 ug/ml after 24 hr by agar well diffusion method
[4] = tested on: Geobacillus stearothermophilus; test: Antibacterial activity against Geobacillus stearothermophilus MTCC 8508 at 10 ug/ml after 24 hr by agar well diffusion method
Pseudomonas putida [5] = test: Antibacterial activity against Pseudomonas putida at 10 ug/ml after 24 hr by agar well diffusion method
Aspergillus flavus [6] = test: Antifungal activity against Aspergillus flavus at 10 ug/ml after 96 hr
[7] = tested on: Geobacillus stearothermophilus; test: Antibacterial activity against Geobacillus stearothermophilus MTCC 8508 at 50 ug/ml after 24 hr by agar well diffusion method
Aspergillus niger [8] = test: Antifungal activity against Aspergillus niger at 50 ug/ml after 96 hr
Pseudomonas putida [9] = test: Antibacterial activity against Pseudomonas putida at 50 ug/ml after 24 hr by agar well diffusion method
Bacillus subtilis [10] = test: Antibacterial activity against Bacillus subtilis MTCC 121 at 50 ug/ml after 24 hr by agar well diffusion method
Escherichia coli [11] = test: Antibacterial activity against Escherichia coli MTCC 51 at 100 ug/ml after 24 hr by agar well diffusion method
[12] = tested on: Geobacillus stearothermophilus; test: Antibacterial activity against Geobacillus stearothermophilus MTCC 8508 at 100 ug/ml after 24 hr by agar well diffusion method
Aspergillus niger [13] = test: Antifungal activity against Aspergillus niger at 10 ug/ml after 96 hr
Aspergillus flavus [14] = test: Antifungal activity against Aspergillus flavus at 100 ug/ml after 96 hr
Aspergillus flavus [15] = test: Antifungal activity against Aspergillus flavus at 50 ug/ml after 96 hr
Pseudomonas putida [16] = test: Antibacterial activity against Pseudomonas putida at 100 ug/ml after 24 hr by agar well diffusion method
Escherichia coli [17] = test: Antibacterial activity against Escherichia coli MTCC 51 at 10 ug/ml after 24 hr by agar well diffusion method
Escherichia coli [18] = test: Antibacterial activity against Escherichia coli MTCC 51 at 50 ug/ml after 24 hr by agar well diffusion method

Row | SMILES | inhibition at 100 µg/mL (Aspergillus niger [1]) | diameter of the inhibition zone (DIZ) (Bacillus subtilis [2]) | diameter of the inhibition zone (DIZ) (Bacillus subtilis [3]) | diameter of the inhibition zone (DIZ) [4] | diameter of the inhibition zone (DIZ) (Pseudomonas putida [5]) | inhibition at 10 µg/mL (Aspergillus flavus [6]) | diameter of the inhibition zone (DIZ) [7] | inhibition at 50 µg/mL (Aspergillus niger [8]) | diameter of the inhibition zone (DIZ) (Pseudomonas putida [9]) | diameter of the inhibition zone (DIZ) (Bacillus subtilis [10]) | diameter of the inhibition zone (DIZ) (Escherichia coli [11]) | diameter of the inhibition zone (DIZ) [12] | inhibition at 10 µg/mL (Aspergillus niger [13]) | inhibition at 100 µg/mL (Aspergillus flavus [14]) | inhibition at 50 µg/mL (Aspergillus flavus [15]) | diameter of the inhibition zone (DIZ) (Pseudomonas putida [16]) | diameter of the inhibition zone (DIZ) (Escherichia coli [17]) | diameter of the inhibition zone (DIZ) (Escherichia coli [18])
1 | COc1cc(-c2nc3cc(Cl)ccc3o2)ccc1O [4-(5-CHLOROBENZO[D]OXAZOL-2-YL)-2-METHOXYPHENOL] | 21.9% | 9.33% | 31.33% | 10.66% | 12.66% | 29% | 21.33% | 5.88% | 26.33% | 20.43% | 31.33% | 31.74% | 8.93% | 86.2% | 51.4% | 37.33% | 9.33% | 21.43%
2 | Clc1ccc2oc(-c3ccccc3)nc2c1 | 21.9% | 10.21% | 36.74% | 10.66% | 15.21% | 29% | 27.21% | 5.88% | 57.66% | 26.47% | 45.33% | 36.44% | 8.93% | 86.2% | 51.4% | 76.33% | 19.92% | 33.87%
3 | O=C(N[C@H](CO)[C@H](O)c1ccc([N+](=O)[O-])cc1)C(Cl)Cl [CHLORAMPHENICOL] | – | 26.33% | 64.2% | 25.33% | 19.33% | – | 53.2% | – | 43.4% | 47.2% | 65.4% | 77.2% | – | – | – | 71.24% | 20.33% | 50.4%
4 | Cc1ccc(-c2nc3ccccc3o2)s1 | 16.6% | inactive | 17.33% | inactive | 13.47% | 24.3% | 12.66% | 5.23% | 22.33% | 11.33% | 34.29% | 19.66% | 4.89% | 88% | 51.6% | 35.45% | 12.45% | 21.74%
5 | Clc1ccc2oc(-c3cccnc3)nc2c1 | 76.5% | 13.33% | 33.33% | 11.33% | 9.66% | 15.8% | 21.43% | 41.7% | 25.33% | 22.16% | 36.74% | 32.33% | 17.6% | 78.9% | 26.3% | 35.33% | 12.66% | 27.33%
6 | C[C@@H]1C[C@@H]([C@H](O)CC2CC(=O)NC(=O)C2)C(=O)[C@@H](C)C1 [CYCLOHEXIMIDE] | 35.3% | – | – | – | – | 15.8% | – | 23.5% | – | – | – | – | 11.8% | 78.9% | 63.1% | – | – | –
